The values below come from US20250281406A1, “COMPOUNDS, COMPOSITIONS AND METHODS FOR DELIVERY OF BIOLOGICALLY ACTIVE AGENTS” (ROYAL MELBOURNE INSTITUTE OF TECHNOLOGY, priority 2022, published 2025).

The structures appear in SMILES notation.

For data set [1] the following is noted: cited from earlier work.
Data set [2] is described as follows: Drug loading and encapsulation efficiency of SN-38 nanoparticles by HPLC. The data set is classed as physicochemical. How it is done: The amount of drug loading (DL) and encapsulation efficiency (EE) were determined for each of the four formulations of Example 5 using an HPLC method.
The nanoparticles containing the drug was centrifuged at 1000×g for 25 min at 25° C. to remove any un-encapsulated drug agglomerates. The supernatant was collected and vortexed for 10 min at 2500 rpm for uniform distribution.
For the SN-38 drug content assay, a UV variable detector at a wavelength of 265 nm and an Agilent Zorbax SB-C18 column (4.6 mm×250 mm, five μm) were utilised. The mobile phase consisted of a 50:50 (v/v) mixture of 25 mM NaH2PO4 (pH=3.1) buffer and acetonitrile. The mobile phase pH was maintained at 3.8 to ensure the analyte, SN-38, was in the closed lactone ring form during the assay. The sample for HPLC was prepared by diluting the nanoparticles 100 times with HPLC solvents (10 μL of the formulation with 990 μL 50/50 mixture of buffer and acetonitrile). During the assay, an aliquot of 20 μL of the sample was injected in duplicate into the HPLC system at a flow rate of 1 ml/min. The SN-38 content in the formulation was quantitatively determined using a standard curve prepared as outlined in previously published journal articles (Zhang et al. 2004; Escoriaza et al. 2000).
The following equation was used calculate the encapsulation efficiency (EE %) […]

The nature of data set [3]: In vitro release of SN-38 by dynamic dialysis. The data set is classed as physicochemical. Particulars: pure-drug suspension, no lipid nanocarriers, within 60-90 min. How it is done:
In vitro release of SN-38 from the nanoparticles was evaluated using a dynamic dialysis method (Zambito, Y. International Journal of Pharmaceutics 2012, 434 (1), 28-34). The drug release rate was determined by placing the dispersion in a dialysis tube (Pur-A-Lyzer™ Maxi Dialysis tube molecular weight cut off 3500) and exhaustively dialysing.
After removing the free drug, the highest SN-38 loaded nanoparticles (1 mL formulation) were placed inside the dialysis tube. The dialysis tube was then immersed in a 1000 mL buffer maintained at 37±1.0° C. and stirred at 400 rpm. The analysis of the separation of free drug from drug-loaded formulations was carried out over a period of 420 min. Release experiments were performed in triplicate on three independently prepared SN-38 loaded formulations. For physiological pH, experiments were carried out by dialysing the formulations against 1000 mL of phosphate buffer (pH 7.0). Lower pH experiments were carried out by dialysing the formulations against 1000 mL of phosphate buffer adjusted to the required pH. The SN-38 that remained in the dialysis tube was quantitatively measured by the HPLC method. At predetermined time intervals (60 min, 120 min, 240 min and 420 min), 10 μL of the sample was withdrawn from the dialysis tube and diluted with 990 μL of the HPLC solvent. […]

Data set [4] can be described thus: Particle size and polydispersity index of lipid nanoparticles by dynamic light scattering. In kind it is physicochemical. Particulars: mean ± SD n=3. The protocol:
The average hydrodynamic diameter and polydispersity index (PDI) of lipid nanoparticles were measured by dynamic light scattering (DLS) using a Malvern Zetasizer Nano ZS (Malvern Instruments, UK). All measurements were performed at 25° C. (n=3) by loading the lipid formulations (10 μL) into clear 96-well half-area polystyrene plates and diluting with 190 μL milli-Q water (Zhai et al. 2015).

A short description of data set [5]: Mesophase (phase behaviour) of lipid nanoparticles by synchrotron SAXS. In kind it is physicochemical. The protocol: Nanoparticle preparations (50 μL) were loaded into a transparent 96-well half-area polystyrene plate (Greiner Bio-One, Interpath Inc., VIC, Australia), and 50 μL of a suitable buffer solution (Citrate buffer) of specified pH was added to the plate. Phase behaviour of the nanoparticles was characterized at the SAXS/WAXS beamline of the Australian Synchrotron. The instrument used an X-ray wavelength of λ=1.128 Å (11.0 keV) with atypical flux of approximately […]. The sample to detector distance was chosen as 1.6 m which provided a q-range of 0.01-0.5 Å^−1 (scattering vector q=4π sin (θ/2)/λ, whereby θ is the scattering angle and λ is the wavelength). Sample scattering patterns were obtained at 25° C. and 37° C. following the procedure reported in the literature. The plate was placed in a holder perpendicular to the X-ray beam. The sample holder was moved by motors that were controlled by in-house ScatterBrain software for automatic SAXS screening. The sample temperature was controlled by a circulating water bath and kept at 25° C. or 37° C. Two-dimensional X-ray diffraction images were recorded on a Decris-Pilatus 1-M detector using ScatterBrain. The scattering images were integrated into one dimensional plots of intensity versus q for phase identification. The mesophase of the nanoparticles were assigned by matching the relative positions of the scattering peaks with known patterns for bicontinuous cubic, hexagonal, lamellar, and micellar cubic phase. The lattice parameter of the nanoparticles were calculated using the IDL-based software AXcess following the described method (Tran et al. 2018; Tran et al. 2016).
As detailed in Example 2 above, lipid nanoparticles described herein were prepared by doping the synthesised amino lipids into MO at 8 different compositions (RMO=0.05, 0.1, 0.15, 0.2, 0.25, 0.3, 0.4, 0.5) and dispersed with Pluronic F-127. Mesophase structure of the drug-free formulations was determined by SAXS over ten different pH values (a pH range of 2.5 to 10). FIG. 3 represents the SAXS partial phase diagrams of these nanoparticles at 25° C. The shape of an amphiphile can be characterised by the critical packing parameter (CPP). CPP=V/al, in which V is the effective volume of the amphiphile's hydrophobic tail, a is the effective cross-sectional area of the headgroup, and l is the effective length of the hydrocarbon chain. Lamellar phases (Lα) are typically observed with a zero interfacial curvature. For CPP values greater than 1, inverse phases, such as Q2 and H2 phases, are formed with increasing negative interfacial curvatures. The Q2 phase consists of lipid bilayers arranged in periodic 3D structures by twisting the bilayers into the shape of infinite periodic minimal surfaces. The H2 is a closed, extended micellar columnar structure, where there is no direct contact between the water inside and outside the H2 phase.

The mark [6] stands for this setting: MO nanoparticles with amino lipid at RMO 0.05, Pluronic F-127, 25° C.
Setting [7] is: MO nanoparticles with amino lipid at RMO 0.1, Pluronic F-127, 25° C.
Setting [8] is: MO nanoparticles with amino lipid at RMO 0.15, Pluronic F-127, 25° C.
Setting [9] is: MO nanoparticles with amino lipid at RMO 0.2, Pluronic F-127, 25° C.
[10] abbreviates: MO nanoparticles with amino lipid at RMO 0.25, Pluronic F-127, 25° C.
The mark [11] stands for this setting: MO nanoparticles with amino lipid at RMO 0.3, Pluronic F-127, 25° C.
Where [12] appears, read: MO nanoparticles with amino lipid at RMO 0.4, Pluronic F-127, 25° C.
Setting [13] is: MO nanoparticles with amino lipid at RMO 0.5, Pluronic F-127, 25° C.

Regarding `CCc1c2c(nc3ccc(O)cc13)-c1cc3c(c(=O)n1C2)COC(=O)[C@]3(O)CC` [SN-38], the Solubility in water in data set [1] was 7 to 11 µg/mL. Also, the “Loading relative to solubility of SN-38 in water” value in data set [2] (844 μg/ml loading) is on record as about 100 times. Also, the “Loading of SN-38” value in data set [2] (highest loading achieved in MO/Lipid-10 nanoparticles) was found to be 844 µg/mL. The “SN-38 released through dialysis membrane” value in data set [3] is “More than 90%”.

`CCCCCCCC/C=C\CCCCCCCC(=O)NCCN1CCOCC1` [Lipid-12]: the “PDI of the formulations” value in data set [4] (setting [6]) was 0.23 ± 0.03; in data set [4] (setting [7]), 0.20 ± 0.05; in data set [4] (setting [8]) it was 0.20 ± 0.05; in data set [4] (setting [9]), 0.30 ± 0.03; in data set [4] (setting [10]), 0.25 ± 0.03; in data set [4] (setting [11]), 0.25 ± 0.05. Also, the “PDI of the formulations” value in data set [4] (setting [12]) is given as 0.40 ± 0.04; in data set [4] (setting [13]) it was 0.38 ± 0.03. The “Particle Size in nm” value came to 214 ± 4 nm in data set [4] (setting [6]); 218 ± 3 nm in data set [4] (setting [7]); 239 ± 3 nm in data set [4] (setting [8]); 250 ± 2 nm in data set [4] (setting [9]); 191 ± 8 nm in data set [4] (setting [10]); 206 ± 11 nm in data set [4] (setting [11]). In addition, the “Particle Size in nm” value worked out at 205 ± 6 nm in data set [4] (setting [12]) and 137 ± 6 nm in data set [4] (setting [13]).

For the compound `CCCCCCCC/C=C\CCCCCCCC(=O)NCc1ccncc1` [Lipid-10, N-(pyridine-4-ylmethyl)oleamide], the “PDI of the formulations” value in data set [4] (setting [6]) is on record as 0.16 ± 0.03; in data set [4] (setting [7]) it was 0.21 ± 0.02; in data set [4] (setting [8]) it was 0.2 ± 0.05; in data set [4] (setting [9]) it was 0.19 ± 0.03; in data set [4] (setting [10]), 0.39 ± 0.03; in data set [4] (setting [11]) it was 0.22 ± 0.02. For the same compound, the “PDI of the formulations” value in data set [4] (setting [12]) stood at 0.24 ± 0.03; in data set [4] (setting [13]) it was 0.25 ± 0.04. For the same compound, the “Particle Size in nm” value is reported as 217 ± 6 nm in data set [4] (setting [6]); 224 ± 3 nm in data set [4] (setting [7]); 259 ± 8 nm in data set [4] (setting [8]); 271 ± 4 nm in data set [4] (setting [9]); 250 ± 3 nm in data set [4] (setting [10]); 246 ± 4 nm in data set [4] (setting [11]). For the same compound, the “Particle Size in nm” value in data set [4] (setting [12]) is 244 ± 6 nm; in data set [4] (setting [13]) it was 265 ± 4 nm. Also, the “Shift of H2 to Q2 transition at 37° C. compared to 25° C. (higher)” value in data set [5] (RMO 0.4, pH 4.0 to 7.5) is given as 0.5 pH unit. In data set [5] (RMO=0.4-0.5, 25° C.), the “pH at which Q2 is reached in the transition from H2 at pH 7.5” value came out at 5.5 pH. For the same compound, the “pH resulting in liposome formation” value in data set [5] (RMO=0.4-0.5, further decrease in pH) was 4.0 pH. For the same compound, in data set [5] (pH 7, MO nanoparticles), the “RMO at which the transition from Q2 to H2 occurred” value was determined as 0.4.

Turning to `CCCCCCCC/C=C\CCCCCCCC(=O)NCc1ccccn1` [Lipid-11], the “PDI of the formulations” value turned out to be 0.23 ± 0.04 in data set [4] (setting [6]); 0.18 ± 0.03 in data set [4] (setting [7]); 0.20 ± 0.03 in data set [4] (setting [8]); 0.23 ± 0.02 in data set [4] (setting [9]); 0.28 ± 0.02 in data set [4] (setting [10]); 0.20 ± 0.02 in data set [4] (setting [11]). Further, the “PDI of the formulations” value in data set [4] (setting [12]) is on record as 0.10 ± 0.02; in data set [4] (setting [13]) it was 0.21 ± 0.03. Also, the “Particle Size in nm” value in data set [4] (setting [6]) is given as 284 ± 2 nm; in data set [4] (setting [7]) it was 255 ± 4 nm; in data set [4] (setting [8]), 300 ± 7 nm; in data set [4] (setting [9]), 267 ± 4 nm; in data set [4] (setting [10]) it was 313 ± 4 nm; in data set [4] (setting [11]), 290 ± 4 nm. The results for the “Particle Size in nm” value in data set [4] (setting [12]) and in data set [4] (setting [13]) were 272 ± 5 nm and 300 ± 4 nm, respectively. Also, in data set [5] (RMO=0.4, neutral pH, MO nanoparticles), the Phase observed entry was “L2 phase”. Moreover, the “pH of transition from L2 to Q2” value in data set [5] (RMO=0.4-0.5) stood at 3.0 pH.

For `CCCCCCCC/C=C\CCCCCCCC(=O)NCCN1CCCCC1` [Lipid-13, N-(2-(piperidin-1-yl)ethyl)oleamide], the “PDI of the formulations” value in data set [4] (setting [6]) turned out to be 0.25 ± 0.03; in data set [4] (setting [7]), 0.20 ± 0.04; in data set [4] (setting [8]) it was 0.23 ± 0.04; in data set [4] (setting [9]), 0.22 ± 0.05; in data set [4] (setting [10]), 0.19 ± 0.03; in data set [4] (setting [11]) it was 0.23 ± 0.03. Also, the results for the “PDI of the formulations” value in data set [4] (setting [12]) and in data set [4] (setting [13]) were 0.15 ± 0.05 and 0.18 ± 0.05, respectively. Moreover, the “Particle Size in nm” value in data set [4] (setting [6]) is given as 180 ± 3 nm; in data set [4] (setting [7]), 176 ± 4 nm; in data set [4] (setting [8]), 168 ± 4 nm; in data set [4] (setting [9]), 185 ± 6 nm; in data set [4] (setting [10]), 180 ± 2 nm; in data set [4] (setting [11]), 194 ± 5 nm. Moreover, the “Particle Size in nm” value came out at 200 ± 5 nm in data set [4] (setting [12]) and 209 ± 5 nm in data set [4] (setting [13]). Also, the “pH difference within which the change from H2 to Q2 is observed” value in data set [5] (RMO=0.2-0.3) was at most 0.5 pH unit. In addition, the “pH of H2→Q2 transition” value in data set [5] (RMO=0.2-0.3) amounted to 7.0 pH.
